Measured values taken from patent publication US20240109934A1, “ANTIBIOTICS WITH IMPROVED DRUG RESISTANCE PROFILE” (priority 2021, published 2024).
≈ marks a conversion by molar mass, not a printed value. Read-outs that look alike come from different tables or passages of the source.

Key:
[1] = system: FA-Resistant strains of S. aureus; experiment: MIC against 11 FA-resistant strains generated at 4x-32x the MIC; type: cell-based
Description: (§1) Antimicrobial Susceptibility Tests. Susceptibility testing was performed in biological triplicate, using the micro-dilution broth method as outlined by the Clinical and Laboratory Standards Institute. Bacteria were cultured with cation-adjusted Muller-Hinton broth (Sigma-Aldrich, Cat #90922) in round-bottom 96-well plates (Corning, Cat #3788). Human serum (Ultrafiltrate, unspecified gender, 30K Dalton membrane filtered) was purchased from BioIVT (Hicksville, NY).
(§2) Selection of Resistant Mutants. Resistant mutants were selected via the large inoculum method. Briefly, S. aureus ATCC 29213 (1×10^9 CFU) were plated on 100 mm plates of LB agar containing 4, 2, 1, 0.5, and 0.25 μg/mL.
(§3) Sequencing of fusA. FusA was amplified by colony PCR. Colonies were picked and diluted in 100 μL sterile H2O. PCR reactions are setup by combining MiFi Mix (Bioline, London, UK), 20 μM primer mix [fusA-F2, fusA_seq1, Forward EF-G2, and Reverse EF-G](S. aureus ATCC 29213), template DNA, and H2O. Reactions were performed on C1000 Thermal Cycler (Bio-Rad, Hercules, CA) with the following conditions: 5 minutes denaturation at 95° C., followed by 30 cycles of 20 seconds at 95° C., 20 seconds at 50° C., and either 1 minute (fusA1) or 1.5 minutes (fusA2) at 72° C. A 10 μL portion of the PCR reaction mixture was analyzed by agarose gel to confirm the product. PCR reactions were purified using GeneJET PCR Purification Kit (Thermo Scientific). PCR amplicons were submitted to the Core DNA Sequencing Facility at the University of Illinois at Urbana-Champaign for Sanger sequencing with the following primers to sequence the fusA [fusA2, fusA_seq1, Forward EF-G2, Forward EF-G3, Forward EF-G4]

[2] = system: S. aureus resistant mutants with EF-G (fusA) mutations; experiment: microbe, parasite or virus in culture; type: cell-based; details: Staphylococcus aureus
Description: as §1, §2, §3

S. aureus ATCC 29213 = experiment: MIC by micro-dilution broth method (CLSI); type: cell-based; details: Staphylococcus aureus, ATCC29213; WT S. aureus ATCC 29213, n = 3; read-out: MIC Without Human Serum
E. faecium ATCC 19434 = experiment: MIC against sensitive E. faecium strain; type: cell-based; details: Enterococcus faecium, ATCC19434; sensitive strain E. faecium ATCC 19434
[3] = Mouse liver microsome stability assay; type: in vitro ADME; details: male, CD-1, mouse, microsomes, 3 h, 50 μM, pH 7.4
Description: Mouse Liver Microsome Stability Assay. A mixture of PBS (pH 7.4), NADPH regenerating system solution A (Corning Life Sciences), and NADPH regenerating system solution B (Corning Life Sciences) was incubated at 37° C. in a shaking incubator for 5 min. Next, compound was added in DMSO (final concentration 50 μM, 0.5% DMSO) before ice-cold mouse liver microsomes (Thermo Fisher, male CD-1 mice, pooled) were added (final protein concentration of 1 mg/mL). An aliquot was immediately removed, quenched with an equal volume of 100 μM internal standard and centrifuged at 13,000 rcf for 3 min. The reactions were incubated at 37° C. in a shaking incubator for 3 h. A second aliquot was removed and quenched. Samples were analyzed with the 5500 QTRAP LC/MS/MS system (Sciex, Framingham, MA) in Metabolomics Lab of Roy J. Carver Biotechnology Center, University of Illinois at Urbana-Champaign. Software Analyst 1.6.2 was used for data acquisition and analysis. The 1200 series HPLC system (Agilent Technologies, Santa Clara, CA) includes a degasser, an autosampler, and a binary pump. The LC separation was performed on an Agilent Sb-Aq column (4.6×50 mm, […]) with mobile phase A (0.1% formic acid in water) and mobile phase B (0.1% formic acid in acetonitrile). The flow rate was 0.3 mL/min. The linear gradient was as follows: 0-3 min, 100% A; 10-16 min, 5% A; 16.5-22 min, 100% A. The autosampler was set at 10° C. The injection volume was 1 μL. Mass spectra were acquired under both positive (ion spray voltage was +5500 V) and negative (ion spray voltage was −4500 V) electrospray ionization (ESI). The source temperature was 450° C. The curtain gas, ion source gas 1, and ion source gas 2 were 33, 65, and 60 psi, respectively. Multiple reaction monitoring (MRM) was used for quantitation.

[4] = system: multidrug-resistant clinical isolates of E. faecium; experiment: MIC against multidrug-resistant clinical isolates of E. faecium; type: cell-based; details: for MIC: Enterococcus faecium, read-out: MIC
S. aureus ATCC BAA-1721 = experiment: MIC against strain possessing the fusC gene; type: cell-based; details: Staphylococcus aureus, ATCCBAA1721

Which MIC ([1]; Staphylococcus aureus, strain FA-4X-A, EF-G T385N) does the source give for `CC(=O)O[C@H]1C[C@@]2(C)[C@@H](C[C@@H](O)[C@H]3[C@@]4(C)CC[C@@H](O)[C@@H](C)[C@@H]4CC[C@@]32C)/C1=C(\CCC=C(C)C)C(=O)O` [FA, Fusidic acid] here?
The MIC was 8 µg/mL (≈ 15.5 µM).

What about the MIC ([1]; Staphylococcus aureus, strain FA-4X-B, EF-G T385N) of the same molecule?
Its MIC is 8 µg/mL (≈ 15.5 µM).

And the MIC ([1]; Staphylococcus aureus, strain FA-8X-A, EF-G T385N)?
Its MIC is 8 µg/mL (≈ 15.5 µM).

What about the MIC ([1]; Staphylococcus aureus, strain FA-8X-B, EF-G R464L) of the same molecule?
Its MIC is 16 µg/mL (≈ 31 µM).

What about the MIC ([1]; Staphylococcus aureus, strain FA-16X-A, EF-G H457Y) of the same molecule?
The MIC was 128 µg/mL (≈ 248 µM).

What about the MIC ([1]; Staphylococcus aureus, strain FA-32X-B, EF-G P406L) of the same molecule?
Its MIC is 32 µg/mL (≈ 61.9 µM).

And the MIC ([1]; Staphylococcus aureus, strain FA-32X-D, EF-G T436I)?
Its MIC is 8 µg/mL (≈ 15.5 µM).

What about the MIC ([1]; strain FA-32×-B) of the same molecule?
The MIC was 32 µg/mL (≈ 61.9 µM).

And the MIC ([2]; read-out: MIC for FA, strain FA-32X-1, EF-G H457Y)?
The MIC was 128 µg/mL (≈ 248 µM).

And the MIC ([2]; read-out: MIC for FA, strain FA-32X-2, EF-G T436I)?
Its MIC is 8 µg/mL (≈ 15.5 µM).

And the MIC ([2]; read-out: MIC for FA, strain FA-32X-3, EF-G H457Y)?
The MIC was 128 µg/mL (≈ 248 µM).

What about the MIC ([2]; read-out: MIC for FA, strain FA-32X-6, EF-G T436I) of the same molecule?
The MIC was 16 µg/mL (≈ 31 µM).

What about the MIC ([2]; read-out: MIC for FA, strain FA-32X-7, EF-G H457Y) of the same molecule?
The MIC was 128 µg/mL (≈ 248 µM).

What about the MIC ([2]; read-out: MIC for FA, strain FA-32X-8, EF-G H457Y) of the same molecule?
Its MIC is 128 µg/mL (≈ 248 µM).

And the MIC ([2]; read-out: MIC for FA, strain FA-32X-10, EF-G H457Y)?
The MIC was 128 µg/mL (≈ 248 µM).

And the MIC ([2]; read-out: MIC for FA, strain FA-32X-12, EF-G H457Y)?
The MIC was 128 µg/mL (≈ 248 µM).

And the MIC ([2]; read-out: MIC for FA, strain FA-32X-13, EF-G H457Y)?
Its MIC is 128 µg/mL (≈ 248 µM).

And the MIC ([2]; read-out: MIC for FA, strain FA-32X-14, EF-G H457Y)?
Its MIC is 128 µg/mL (≈ 248 µM).

What about the MIC ([2]; read-out: MIC for FA, strain FA-32X-15, EF-G H457Y) of the same molecule?
Its MIC is 128 µg/mL (≈ 248 µM).

And the MIC ([2]; read-out: MIC for FA, strain FA-32X-19, EF-G H457Y)?
Its MIC is 128 µg/mL (≈ 248 µM).

And the MIC ([2]; read-out: MIC for FA, strain FA-32X-20, EF-G H457Y)?
Its MIC is 128 µg/mL (≈ 248 µM).

And the MIC (S. aureus ATCC 29213)?
Its MIC is 0.125 µg/mL (≈ 0.242 µM).

What about the MIC (E. faecium ATCC 19434) of the same molecule?
Its MIC is 2 µg/mL (≈ 3.87 µM).

What about the “Metabolic Stability in Mouse Liver Microsomes (percent remaining)” value [3] of the same molecule?
Its value is 82 ± 0.8%^.

And the Cross-resistance with vancomycin ([4]; E. faecium clinical isolates)?
The Cross-resistance with vancomycin was “no cross-resistance with vancomycin”.

What about the MIC ([4]; E. faecium AR0572 (CDC)) of the same molecule?
The MIC was 4 µg/mL (≈ 7.74 µM).

And the MIC ([4]; E. faecium AR0574 (CDC))?
The MIC was 2 µg/mL (≈ 3.87 µM).

And the MIC ([4]; E. faecium AR0575 (CDC))?
Its MIC is 2 µg/mL (≈ 3.87 µM).

And the MIC ([4]; E. faecium AR0576 (CDC))?
Its MIC is 4 µg/mL (≈ 7.74 µM).

And the MIC ([4]; E. faecium AR0578 (CDC))?
Its MIC is 2 µg/mL (≈ 3.87 µM).

And the MIC ([4]; E. faecium AR0579 (CDC))?
The MIC was 1 µg/mL (≈ 1.94 µM).

What about the MIC (S. aureus ATCC BAA-1721) of the same molecule?
Its MIC is 8 µg/mL (≈ 15.5 µM).
